Here are results for ten compounds from patent publication US20240199587A1, “HETEROCYCLIC COMPOUNDS” (Hoffmann-La Roche Inc., priority 2021, published 2024).

The target of this assay is T1, MAGL (Homo sapiens, UniProt Q99685).
T1 sequence (Q99685 1-303): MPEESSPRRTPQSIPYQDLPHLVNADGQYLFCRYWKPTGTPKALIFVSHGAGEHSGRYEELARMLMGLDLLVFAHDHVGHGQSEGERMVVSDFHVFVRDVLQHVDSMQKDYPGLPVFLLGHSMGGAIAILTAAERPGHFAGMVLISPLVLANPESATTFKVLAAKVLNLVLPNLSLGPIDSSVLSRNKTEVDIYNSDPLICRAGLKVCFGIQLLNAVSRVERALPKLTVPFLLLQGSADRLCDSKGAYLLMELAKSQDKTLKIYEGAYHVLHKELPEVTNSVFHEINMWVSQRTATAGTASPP
Nature of the assay: 2-AG assay (MAGL inhibitory activity, hydrolysis of 2-arachidonoylglycerol to arachidonic acid followed by mass spectrometry). The format is biochemical. The settings on record: 8 μM 2-arachidonoylglycerol, 15 min pre-incubation, 30 min incubation at RT, RapidFire MS readout. The method, boiled down:
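Human MAGL ([…] final) pre-incubated 15 min at RT with compound in 50 mM TRIS, 1 mM EDTA, 0.01% Tween-20, 2.5% DMSO; 8 μM 2-AG then added for 30 min at RT. Acetonitrile quench with d8-arachidonic acid; arachidonic acid measured by RapidFire SPE–MS/MS, activity from arachidonic acid/d8 ratio.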
As a reminder, the IC50 is the midpoint of a concentration-inhibition curve. A low value points to higher potency. For `O=C(N1CC(c2ccc(N3CC[C@H](C(F)(F)F)C3)nc2)C1)N1CC2(CC(n3cnc(C(F)(F)F)n3)C2)C1` [Example 426, [3-[6-[(3S)-3-(trifluoromethyl)pyrrolidin-1-yl]-3-pyridyl]azetidin-1-yl]-[6-[3-(trifluoromethyl)-1,2,4-triazol-1-yl]-2-azaspiro[3.3]heptan-2-yl]methanone], it took 0.7 nM to reach half-maximal inhibition (IC50). This counts as sub-nanomolar. The same measure for `O=C(N1CC(c2ccc(N3CC[C@@H](C(F)(F)F)C3)nc2)C1)N1CC2(CC(n3cnc(C(F)(F)F)n3)C2)C1` [Example 427, [3-[6-[(3R)-3-(trifluoromethyl)pyrrolidin-1-yl]-3-pyridyl]azetidin-1-yl]-[6-[3-(trifluoromethyl)-1,2,4-triazol-1-yl]-2-azaspiro[3.3]heptan-2-yl]methanone]: 0.53 nM.

In turn, `O=C(N1CC(c2ccc(NCC3CS(=O)(=O)C3)nc2)C1)N1CC2(CC(n3cnc(C(F)(F)F)n3)C2)C1` [Example 428, [3-[6-[(1,1-dioxothietan-3-yl)methylamino]-3-pyridyl]azetidin-1-yl]-[6-[3-(trifluoromethyl)-1,2,4-triazol-1-yl]-2-azaspiro[3.3]heptan-2-yl]methanone] registered a half-inhibitory concentration (IC50) of 58.5 nM. In turn, `NC(=O)c1ccccc1-c1ccc(C2CN(C(=O)N3CC4(CC(n5cnc(C(F)(F)F)n5)C4)C3)C2)cc1` [Example 429, 2-[4-[1-[6-[3-(trifluoromethyl)-1,2,4-triazol-1-yl]-2-azaspiro[3.3]heptane-2-carbonyl]azetidin-3-yl]phenyl]benzamide] yielded an IC50 of 0.66 nM.

Compound `CS(=N)(=O)c1ccc(CC2CC3(C2)CN(C(=O)N2CC4(CC(n5cnc(C(F)(F)F)n5)C4)C2)C3)cc1` (stereo not shown) [Example 430, [6-[[4-(methylsulfonimidoyl)phenyl]methyl]-2-azaspiro[3.3]heptan-2-yl]-[6-[3-(trifluoromethyl)-1,2,4-triazol-1-yl]-2-azaspiro[3.3]heptan-2-yl]methanone] gave an IC50 of 17.2 nM. Compound `CS(=N)(=O)c1cccc(CC2CC3(C2)CN(C(=O)N2CC4(CC(n5cnc(C(F)(F)F)n5)C4)C2)C3)c1` (stereo not shown) [Example 431, [6-[[3-(methylsulfonimidoyl)phenyl]methyl]-2-azaspiro[3.3]heptan-2-yl]-[6-[3-(trifluoromethyl)-1,2,4-triazol-1-yl]-2-azaspiro[3.3]heptan-2-yl]methanone] showed an IC50 of 10.3 nM. `O=C(N1CC(C23CC(c4nnc(C5CC5)[nH]4)(C2)C3)C1)N1CC2(CC(n3cnc(C4CC4)n3)C2)C1` [Example 432, [6-(3-cyclopropyl-1,2,4-triazol-1-yl)-2-azaspiro[3.3]heptan-2-yl]-[3-[3-(5-cyclopropyl-4H-1,2,4-triazol-3-yl)-1-bicyclo[1.1.1]pentanyl]azetidin-1-yl]methanone] returned an IC50 of 8.3 nM. With `O=C(N1CC(C23CC(c4nnc(C5CC5)[nH]4)(C2)C3)C1)N1CC2(CC(n3cnc(C(F)(F)F)n3)C2)C1` [Example 433, [3-[3-(5-cyclopropyl-4H-1,2,4-triazol-3-yl)-1-bicyclo[1.1.1]pentanyl]azetidin-1-yl]-[6-[3-(trifluoromethyl)-1,2,4-triazol-1-yl]-2-azaspiro[3.3]heptan-2-yl]methanone], the IC50 came out at 44.1 nM. Compared with the last compound, the IC50 is about 5.3-fold higher. The same measure for `O=C(N1CC2(CC(n3cnc(C4CC4)n3)C2)C1)N1CC2(CCN(Cc3ccc(C(F)(F)F)nc3)C2)C1` [Example 434]: 3.37 nM. In the case of `O=C(N1CC(C23CC(c4nnc(CC(F)(F)F)o4)(C2)C3)C1)N1CC2(CC(n3cnc(C4CC4)n3)C2)C1` [Example 435, [6-(3-cyclopropyl-1,2,4-triazol-1-yl)-2-azaspiro[3.3]heptan-2-yl]-[3-[3-[5-(2,2,2-trifluoroethyl)-1,3,4-oxadiazol-2-yl]-1-bicyclo[1.1.1]pentanyl]azetidin-1-yl]methanone], half-maximal inhibition (IC50) required 7.69 nM.
